Laboratory results taken from patent US6537744B1, “Use of biomarkers in saliva to evaluate the toxicity of agents and the function of tissues in both biomedical and environmental applications” (priority 1995, dated 2003).

Columns and labels:
[1] = target: saliva enzymes (esterase activity); test: Inhibition of saliva enzymes (esterase activity) for detection of chemicals in water; format: biochemical, human
Experimental: The presence of chemicals in milk, water, urine and other biological fluids are detected using saliva enzymes. The detection limit for the chemicals depends on the chemical potency and the number of chemicals present in the sample. The data presented here using saliva enzymes indicates a remarkably low concentration of des N-isofenphos (DNIO) in water (3 ng/mL) is detectable using the saliva enzyme method. A 50% inhibition of esterase activity is produced at 3 ng/mL DNIO. In this procedure, the sample is passed through […] solid phase absorption column (C-18) to extract and concentrate the chemicals as described by Knaak et al. (1993). The retention of the chemicals on C-18 column depends on their lipid solubility. The non-polar compounds usually have the highest retention. Then, the chemical is eluted with 1 mL of alcohol. A 0.1 mL of the elute is tested for the inhibition of saliva enzymes as described in this application. Toxicants in solid environmental samples, fruit and vegetables can be extracted with water or proper solvent. Samples of the extract are tested for enzymes inhibition. The inhibition of saliva enzyme indicates the presence of toxicant(s) in the sample and further analysis is needed to identify the specific chemical(s).

[2] = tested on: acetylcholinesterase in human saliva; test: Inhibition of acetylcholinesterase in human saliva (acetylthiocholine iodide/DTNB, 405 nm); format: biochemical; details: for % Activity / % Inhibition / Absorb. at 408 nm for 65 min. / Absorb. at 408 nm for 180 min. / nmol/min per mg: 0.6 mL saliva, 30 min preincubation at room temperature
Experimental: The hydrolysis of acetylthiocholine iodide (an analog of acetylcholine iodides) by the saliva enzyme or enzymes is measured by generating the yellow 5-thio-2-nitrobenzoate with an absorbance maximum at 405 nm. The rate of change of absorbance is directly proportional to acetylcholinesterase activity. In this procedure, 0.1-1 mL of saliva (3.261 mg protein/mL) is incubated with 100 μL of acetylthiocholine iodide (0.018M) (lot #10H0653 Sigma) for 30-180 minute at 37° C. in 4.0 mL phosphate buffer (pH 7.8). After the incubation, a 0.2 mL of DTNB is added and the sample is read at 405 nm. The enzyme activity is calculated from glutathione standard curve (Table 9 and FIG. 9). Values for AChE activity in human saliva and enzyme kinetics are presented in Tables 10-14 and show in FIG. 10 through FIG. 14.
The AChE specific activity in saliva is about 4 nmol minute^−1 per mL of saliva. […] The percent of enzyme inhibition by organophosphate is calculated and presented in Tables 13-14 and showing in FIG. 15.

[3] = 2 μg of DNIO in 4.0 mL, Test #2, 200 μL saliva, 37° C.

## CCOP(N)(=O)Oc1ccccc1C(=O)OC(C)C (stereo not drawn) [DNIO, des N-Isofenphos-oxon]
[1]
  concentration producing 50% inhibition of esterase activity: 3 ng/mL
[2]; 1.0 ng/mL, Test #2
  % Activity: 68%
  % Inhibition: 32%
  Absorb. at 408 nm for 65 min.: .17
  Absorb. at 408 nm for 180 min.: .21
  nmol/min per mg: .29 nmol/min per mg
[2]; 2.9 ng/mL, Test #2
  % Activity: 45%
  % Inhibition: 55%
  Absorb. at 408 nm for 65 min.: .16
  Absorb. at 408 nm for 180 min.: .14
  nmol/min per mg: .19 nmol/min per mg
[2]; 8.6 ng/mL, Test #2
  % Activity: 26%
  % Inhibition: 74%
  Absorb. at 408 nm for 65 min.: .11
  Absorb. at 408 nm for 180 min.: .08
  nmol/min per mg: .11 nmol/min per mg
[2]; 26 ng/mL, Test #2
  % Activity: 19%
  % Inhibition: 81%
  Absorb. at 408 nm for 65 min.: .11
  Absorb. at 408 nm for 180 min.: .06
  nmol/min per mg: .08 nmol/min per mg
[2]; 52 ng/mL, Test #2
  % Activity: 13%
  % Inhibition: 87%
  Absorb. at 408 nm for 65 min.: .09
  Absorb. at 408 nm for 180 min.: .04
  nmol/min per mg: .05 nmol/min per mg
[2]; 78 ng/mL, Test #2
  % Activity: 13%
  % Inhibition: 87%
  Absorb. at 408 nm for 65 min.: .10
  Absorb. at 408 nm for 180 min.: .04
  nmol/min per mg: .05 nmol/min per mg
[2]; 156 ng/mL, Test #2
  % Activity: 13%
  % Inhibition: 87%
  Absorb. at 408 nm for 65 min.: .10
  Absorb. at 408 nm for 180 min.: .04
  nmol/min per mg: .05 nmol/min per mg
[2]; 313 ng/mL, Test #2
  % Activity: 10%
  % Inhibition: 90%
  Absorb. at 408 nm for 65 min.: .07
  Absorb. at 408 nm for 180 min.: .03
  nmol/min per mg: .04 nmol/min per mg
[2]; 625 ng/mL, Test #2
  % Activity: 10%
  % Inhibition: 90%
  Absorb. at 408 nm for 65 min.: .07
  Absorb. at 408 nm for 180 min.: .03
  nmol/min per mg: .04 nmol/min per mg
[2]; [3]
  Absorb. at 405 nm for 50 min.: .14
  Absorb. at 405 nm for 110 min.: .10
  Absorb. at 405 nm for 165 min.: .11
[2]; 2 μg of DNIO in 4.0 mL, Test #2, 200 μL saliva, 37° C. (no inhibitor: 1.14)
  Activity: .22 nmol/min
[2]; .04 ng/mL, Test #2
  % Activity: 94%
  % Inhibition: 6%
  Absorb. at 408 nm for 65 min.: .17
  Absorb. at 408 nm for 180 min.: .29
  nmol/min per mg: .39 nmol/min per mg
[2]; .1 ng/mL, Test #2
  % Activity: 90%
  % Inhibition: 10%
  Absorb. at 408 nm for 65 min.: .14
  Absorb. at 408 nm for 180 min.: .28
  nmol/min per mg: .37 nmol/min per mg
[2]; .3 ng/mL, Test #2
  % Activity: 84%
  % Inhibition: 16%
  Absorb. at 408 nm for 65 min.: .21
  Absorb. at 408 nm for 180 min.: .26
  nmol/min per mg: .34 nmol/min per mg
[2]; DNIO 4 μg in 4 mL, Test #1, 1.0 mL saliva, pH 7.8
  Absorb. at 405 nm for 100 min.: .03
[2]; acetylcholinesterase, human saliva
  effective concentration for 50% inhibition EC50: 3 ng/mL
[2]; human saliva
  inhibition of acetylcholinesterase (in words): inhibited
[2]; saliva incubated with inhibitor about 15 minutes before substrate
  concentration that produced 50% inhibition in AChE: 3 ng per mL
